Data: US20260102407A1, “TREATMENT METHODS” (priority 2020, published 2026)
Values joined by “and” are separate entries in the source; they are usually repeats but may differ in a detail not shown here. Identical values can stand only once.

Assays:
Balb/c mice = assay: Toxicology, histopathology after intraperitoneal, intraarticular or gavage administration; conditions: for Eye (left and right), severity grade / Heart, severity grade / Kidney (left and right): inflammation, renal pelvis, severity grade / Liver: inflammation, peritoneal, severity grade / Liver: mineralisation, subcapsular, severity grade / Lung: osseous metaplasia, severity grade / Spleen, severity grade / Kidney (left and right): inflammation, interstitial, severity grade / Liver: inflammation, parenchymal, severity grade: Mouse 1-5
Description: Toxicology. Female Balb/c mice (8-9 week-old) were given 3 or 30 mg/kg BT2 (DMSO vehicle) via intraperitoneal injection (Days 0 and 5 in DMSO), oral gavage (Days 0-4 in DMSO/methylcellulose) or intraarticular injection (Day 0 in DMSO). Mice were euthanized after 8-11 d. Tissues was fixed in 10% formalin, processed routinely, sectioned at 4 μm and stained with hematoxylin and eosin.

[1] = test system: Brown Norway pigmented rats; assay: Rat choroidal laser injury model, fluorescein leakage; format: in vivo; conditions: 192 μg IVT, Days 0 and 7, HRA score Days 14 and 21
From the text: Rat choroidal laser injury model. Male Brown Norway pigmented rats (8-14 week-old) were anesthetized by an intramuscular injection of Rompun® (xylazine)/Imalgene® (ketamine). Pupils were dilated by instillation of one drop of 0.5% tropicamide before laser burn. Six burns were created in both eyes on Day 0 by applying 170 mW of 532 nm laser light (Viridis laser, Quantel, France) on 75 μm spots around the optic nerve, between the main retinal vessel branches, for 0.1s, through the slit lamp and contact lens. Production of a bubble at the time of laser application confirmed the rupture of Bruch's membrane. Compounds in vehicle (saline containing 0.01% DMSO and 0.5% Tween 80, sonicated) in 2-5 μl were injected IVT on Days 0 and 7 under an operating microscope using a 30G needle mounted on a 100 μl Hamilton syringe. Kenacort was administered IVT into each eye on Day 0. Alternatively, aflibercept/Eylea in vehicle (saline) was injected IVT 6 times (Days 0, 3, 7, 10, 14, 17). […] After anaesthesia, 10% sodium fluorescein (250 μl/100 g body weight) was injected subcutaneously, and ocular fluorescence was recorded 10 min after dye injection. Fluorescein leakage was evaluated on Days 14 and 21 in the angiograms by two examiners masked to the study groups and graded for fluorescein intensity as follows: score 0: no leakage; 1: slightly stained; 2: moderately stained; 3: strongly stained.

p-SAPK/JNK = assay: Western blot, IL-1β-inducible p-SAPK/JNK in HMEC-1; format: cell-based, human; conditions: 1-30 μM
Description: Western blot analysis with extracts of cells treated with IL-13. HMEC-1 (80-90% confluency) were arrested in serum-free MCDB131 medium (Invitrogen, MD) without any growth factor for 48 h. Cells were treated with 30 μM compound in serum-free medium for 4 h, and incubated with 20 ng/ml IL-1β (Sigma, cat. SRE3083) in serum-free medium with the same concentration of compound for up to 4 h, unless otherwise indicated. Total protein was harvested as previously described using RIPA buffer with protease inhibitors. Proteins were resolved on 4-20% (w/v) SDS-polyacrylamide gradient gels and transferred to Immobilon-P PVDF membranes. […] Chemiluminescence was detected using the Western Lightning Chemiluminescence system and ImageQuant™ LAS 4000 biomolecular imager. Band intensity in images generated with the LAS 4000 using the same settings were quantified by NIH ImageJ.

[2] = Gavage BT2 3 mg/kg (Days 0-4), 3 mg/kg
[3] = IA BT2 3 mg/kg (Day 0), 3 mg/kg
[4] = IP BT2 3 mg/kg (Days 0 and 5), 3 mg/kg
[5] = IP BT2 30 mg/kg (Days 0 and 5), 30 mg/kg

## CCOC(=O)Nc1ccc2c(c1)C(=O)N(CC)c1ccccc1O2 [BT2, (10-ethyl-11-oxo-10,11-dihydro-dibenzo[b,f][1,4]oxazepin-2-yl)-carbamic acid ethyl ester]
Balb/c mice; Balb/c mice, 3 or 30 mg/kg, intraperitoneal, intraarticular or oral gavage
  histopathological evidence of toxicity: no histopathological evidence of toxic damage
Balb/c mice; Balb/c mice, all BT2 groups, control one of 5
  treated mice whose kidneys contained infrequent inflammatory foci: 4 of 30
Balb/c mice; Gavage BT2 3 mg/kg (Days 0-4)
  Eye (left and right), severity grade: 0
  Heart, severity grade: 0
  Kidney (left and right): inflammation, renal pelvis, severity grade: 0
  Liver: inflammation, peritoneal, severity grade: 0
  Liver: mineralisation, subcapsular, severity grade: 0
  Lung: osseous metaplasia, severity grade: 0
  Spleen, severity grade: 0
Balb/c mice; [2]
  Kidney (left and right): inflammation, interstitial, severity grade: 0 and 1
  Liver: inflammation, parenchymal, severity grade: 0 and 1
Balb/c mice; Gavage BT2 30 mg/kg (Days 0-4)
  Eye (left and right), severity grade: 0
  Heart, severity grade: 0
  Kidney (left and right): inflammation, interstitial, severity grade: 0
  Kidney (left and right): inflammation, renal pelvis, severity grade: 0
  Liver: inflammation, peritoneal, severity grade: 0
  Liver: mineralisation, subcapsular, severity grade: 0
  Lung: osseous metaplasia, severity grade: 0
  Spleen, severity grade: 0
Balb/c mice; Gavage BT2 30 mg/kg (Days 0-4), 30 mg/kg
  Liver: inflammation, parenchymal, severity grade: 1 and 0
Balb/c mice; IA BT2 3 mg/kg (Day 0)
  Eye (left and right), severity grade: 0
  Heart, severity grade: 0
  Liver: inflammation, peritoneal, severity grade: 0
  Liver: mineralisation, subcapsular, severity grade: 0
  Lung: osseous metaplasia, severity grade: 0
  Spleen, severity grade: 0
Balb/c mice; [3]
  Kidney (left and right): inflammation, interstitial, severity grade: 0 and 1
  Kidney (left and right): inflammation, renal pelvis, severity grade: 2 and 0
  Liver: inflammation, parenchymal, severity grade: 1 and 0
Balb/c mice; IA BT2 30 mg/kg (Day 0)
  Eye (left and right), severity grade: 0
  Heart, severity grade: 0
  Kidney (left and right): inflammation, interstitial, severity grade: 0
  Kidney (left and right): inflammation, renal pelvis, severity grade: 0
  Liver: inflammation, parenchymal, severity grade: 1
  Liver: inflammation, peritoneal, severity grade: 0
  Liver: mineralisation, subcapsular, severity grade: 0
  Lung: osseous metaplasia, severity grade: 0
  Spleen, severity grade: 0
Balb/c mice; IP BT2 3 mg/kg (Days 0 and 5)
  Eye (left and right), severity grade: 0
  Heart, severity grade: 0
  Kidney (left and right): inflammation, interstitial, severity grade: 0
  Kidney (left and right): inflammation, renal pelvis, severity grade: 0
  Liver: mineralisation, subcapsular, severity grade: 0
  Spleen, severity grade: 0
Balb/c mice; [4]
  Liver: inflammation, parenchymal, severity grade: 1 and 0
  Liver: inflammation, peritoneal, severity grade: 0 and 2 and 1
  Lung: osseous metaplasia, severity grade: 0 and 1
Balb/c mice; IP BT2 30 mg/kg (Days 0 and 5)
  Eye (left and right), severity grade: 0
  Heart, severity grade: 0
  Kidney (left and right): inflammation, interstitial, severity grade: 0
  Lung: osseous metaplasia, severity grade: 0
  Spleen, severity grade: 0
Balb/c mice; [5]
  Kidney (left and right): inflammation, renal pelvis, severity grade: 0 and 4
  Liver: inflammation, parenchymal, severity grade: 1 and 2
  Liver: inflammation, peritoneal, severity grade: 1 and 2
  Liver: mineralisation, subcapsular, severity grade: 0 and 1
[1]
  reduction of retinal permeability (fluorescein leakage): ~50%
p-SAPK/JNK
  IL-1β-inducible p-SAPK/JNK: no effect
